In publication PMC7221740, “Cyclic Synthetic Peroxides Inhibit Growth of Entomopathogenic Fungus Ascosphaera apis without Toxic Effect on Bumblebees” (Molecules, 2020):
Converted amounts (≈) assume the structure as drawn.

Tests used:
A. apis [1] = test system: A. apis; set-up: method as in PMID 30862950; settings: ref [54]; cited from earlier work
Ascosphaera apis = test: Inhibition of radial growth of Ascosphaera apis mycelium in potato-saccharose agar; type: cell-based; settings: 72 h; for inhibition at 30 µg/mL / EC50: Ascosphaera apis; for inhibition at 30 µg/mL / Mycelium Growth Inhibition (I), %: A. apis, concentration 30 mg/L, potato-saccharose agar, 25 °C; for inhibition at 30 µg/mL: read-out: Mycelium Growth Inhibition (I), %; for EC50: A. apis mycelium growth, read-out: EC50 (mg/L) ± SD, fungicidal activity
A. apis [2] = test system: A. apis; set-up: method as in PMID 22263693; settings: ref [55]; read-out: IC50 against A. apis; cited from earlier work
[3] = test system: bumblebees Bombus terrestris L.; test: Toxic effect on bumblebees (feeding with inverted sugar syrup); type: in vivo; settings: concentration not given
Description: In the next step, we evaluated the toxicity of active peroxides 1–4, 6 towards bumblebees. Two approaches were used for this purpose. The first approach was a contact action of bumblebees with 30 mg/L solution of peroxide in water containing DMSO (5% vol.). The second approach was feeding of bumblebees with inverted sugar syrup containing peroxides 1–4, 6 (the concentration of peroxide was 30 mg/L) and DMSO (5% vol.). The mortality of bumblebees after their contact with solutions of peroxides 1–4, 6 was absent. […] However, after the consumption of sugar syrup containing difenoconazole or penconazole, the ability of bumblebees to fly was decreased by 1.4 times and 1.3 times, respectively (Figure 4). On average, bumblebees from the control group were in flight for 9 min 28 s. After the consumption of syrup with difenoconazole and penconazole (see Materials and methods), the time spent by insects in flight decreased to 6 min 36 s and 7 min 17 s, respectively.
Peroxide 1–4, 6 (0.3 mg or 3.0 mg) was added to 500 µL of DMSO, and the resulting solution was diluted with 60% inverted sugar syrup to 10 mL. After that, 30 mg/L or 300 mg/L solution of peroxide in inverted sugar syrup containing DMSO (5% vol.) was obtained. A solution of DMSO (500 µL) in 60% inverted sugar syrup was used as the control solution. […]

[4] = test system: bumblebees Bombus terrestris L.; test: Ability of bumblebees to fly; type: in vivo; settings: for Ability of bumblebees to fly in the contact action test: peroxides 30 mg/L in water with DMSO (5% vol.); for Decrease of the ability of bumblebees to fly after consumption of sugar syrup: feeding, versus control group
[5] = test system: bumblebees Bombus terrestris L.; test: Toxic effect on bumblebees (contact action); settings: concentration not given

Row | Structure (SMILES) | inhibition at 30 µg/mL (Ascosphaera apis) [%] | EC50 (Ascosphaera apis) [mg/L] | melting point [°C] | other results
1 | COc1ccc(C(=O)/C=C/c2ccc(O)cc2)c(O)c1CC=C(C)C [4-hydroxyderricin] | – | – | – | MIC against A. apis (A. apis [1]): 6.25 mg/L (≈ 18.5 µM)
2 | C=CCC1(C(=O)OCC)CCC2(C)OOC1(C)O2 (centres unmarked) [Compound 1, Ethyl-2-allyl-1,5-dimethyl-6,7,8-trioxabicyclo[3.2.1]octane-2-carboxylate] | 94 | 4 ± 0.2 (≈ 15.6 µM) | – | –
3 | CC12OOC(C)(OO1)C2C12CC3CC(CC(C3)C1)C2 (centres unmarked) [Compound 6, 7-(Adamantan-1-yl)-1,4-dimethyl-2,3,5,6-tetraoxabicyclo[2.2.1]heptane] | 94 | 1.6 ± 0.1 (≈ 6.01 µM) | 130 to 131 | –
4 | COc1ccc(C23OOC4(C)OC(C)(CCC42)O3)cc1 (centres unmarked) [Compound 7, 3-(4-Methoxyphenyl)-6,7a-dimethyltetrahydro-3H,4H-3,6-epoxy[1,2]dioxolo[3,4-b]pyran] | 53 | – | 89 to 90 | –
5 | C=CCC12CCC3(C)OC1(C)OOC2(C)O3 [Compound 8, 3a-Allyl-3,6,7a-trimethyltetrahydro-3H,4H-3,6-epoxy[1,2]-dioxolo[3,4-b]pyran] | 25 | – | 43 to 44 | –
6 | CO/N=C(/C(=O)OC)c1ccccc1COc1ccccc1C [Kresoxim-methyl 10, Kresoxim-methyl] | < 100 | < 1 | – | Mycelium Growth Inhibition (I), % (Ascosphaera apis): 88%; Mycelium Growth Inhibition (I), % (Ascosphaera apis; listed as Kresoxim-methyl): did not completely inhibit
7 | CCCCCC(=O)O[C@H]1C(=O)c2c(O)cc(O)cc2O[C@@H]1c1ccccc1 [Pinobanksin-3-hexanoate] | – | – | – | IC50 (A. apis [2]): 23 ± 2 µM
8 | CC(C)(C)C(=O)C(Oc1ccc(Cl)cc1)n1cncn1 (centres unmarked) [Triadimefon 9, Triadimefon] | < 100 | 7.1 ± 0.8 (≈ 24.2 µM) | – | Mycelium Growth Inhibition (I), % (Ascosphaera apis): 91%
9 | CC1COC(Cn2cncn2)(c2ccc(Oc3ccc(Cl)cc3)cc2Cl)O1 (centres unmarked) [difenoconazole] | – | – | – | Bumblebee mortality after consumption of syrup with commercial fungicide [3]: had not increased; Ability of bumblebees to fly in the contact action test [4]: did not affect the ability to fly; Decrease of the ability of bumblebees to fly after consumption of sugar syrup [4]: 1.4 times; Bumblebee mortality in contact with commercial fungicide [5]: had not increased
10 | CCCC(Cn1cncn1)c1ccc(Cl)cc1Cl (centres unmarked) [penconazole] | – | – | – | Bumblebee mortality after consumption of syrup with commercial fungicide [3]: had not increased; Ability of bumblebees to fly in the contact action test [4]: did not affect the ability to fly; Decrease of the ability of bumblebees to fly after consumption of sugar syrup [4]: 1.3 times; Bumblebee mortality in contact with commercial fungicide [5]: had not increased
